Measurements from US9018214B2, “Bicyclic heterocycle compounds and their uses in therapy” (Astex Therapeutics Limited, priority 2011, dated 2015).
Where a name gives a salt, the structure may show the parent alone. Read-outs that look alike come from different tables or passages of the source. Values belong to the compound of their own block, whether it stands above or below them.

Legend:
[1] = biological target: BIR3 domain of human cIAP-1 (residues 267-363) (Homo sapiens (Human), UniProt Q13490); assay: cIAP-1 in vitro competitive displacement binding assay (fluorescence polarization; Probe A AVPIK(5&6FAM)-amide or Probe B AbuRPFK(5&6FAM)-amide)
[2] = biological target: BIR3 domain of human XIAP (residues 252-350) (Homo sapiens (Human), UniProt P98170); assay: XIAP in vitro competitive displacement binding assay (fluorescence polarization); settings: for IC50: read-out: IC50 or PI Xiap: IC50
[3] = 3 h, Probe B, read-out: IC50 or PI cIAP1: PI
[4] = Probe A AVPIK(5&6FAM)-amide, read-out: IC50 or PI cIAP1: IC50
[5] = Probe B AbuRPFK(5&6FAM)-amide, read-out: IC50 or PI cIAP1: IC50
[6] = read-out: IC50 or PI cIAP1: IC50

Structure (SMILES): C[C@@H]1CN(CC(=O)N2CC3(CCN(C(=O)OCc4ccccc4)CC3)c3ccc(Cl)cc32)CCN1 [Example 23, Benzyl 6-chloro-1-{2-[(3R)-3-methyl-piperazin-1-yl]acetyl}-1,2-dihydro-spiro[indole-3,4′-piperidine]-1′-carboxylate hydrochloride salt]
IC50 [1, 4]: 11 µM | IC50 [2]: 18 µM

Structure (SMILES): C[C@@H]1CN(CC(=O)N2CCc3cc(Br)ccc32)CCN1 [Example 11, 1-(5-Bromo-2,3-dihydro-indol-1-yl)-2-((R)-3-methyl-piperazin-1-yl)-ethanone]
inhibition at 100 µM ([1]; 3 h, Probe A, read-out: IC50 or PI cIAP1: PI): 46% | inhibition at 100 µM ([2]; 1 h, @ 100 μM, read-out: IC50 or PI Xiap: PI): 59%

Structure (SMILES): COC[C@H]1CN[C@H](C)CN1CC(=O)N1C[C@@](C)(c2ccccc2)c2ccc(C#N)cc21 [Example 139, (3S)-1-{2-[(2R,5R)-2-(Methoxymethyl)-5-methylpiperazin-1-yl]acetyl}-3-methyl-3-phenyl-2,3-dihydro-1H-indole-6-carbonitrile]
IC50 [2]: 0.23 µM

Structure (SMILES): C[C@@H]1CN(CC(=O)N2CCc3ccc(S(C)(=O)=O)cc32)CCN1 [Example 30, 1-(6-Methane-sulfonyl-2,3-dihydro-indol-1-yl)-2-((R)-3-methyl-piperazin-1-yl)-ethanone hydrochloride salt]
inhibition at 99 µM ([1]; 3 h, Probe A, @ 99 μM, read-out: IC50 or PI cIAP1: PI): 60%

Structure (SMILES): Cc1ccc2c(c1)N(C(=O)CN1CCN[C@H](C)C1)CC2 [Example 6, 1-(6-Methyl-2,3-dihydro-indol-1-yl)-2-((R)-3-methyl-piperazin-1-yl)-ethanone]
IC50 [1, 4]: 95 µM

Structure (SMILES): C[C@@H]1CN(CC(=O)N2CC(C)(C)c3ncc(Cc4ccc(F)cc4)cc32)CCN1 [Example 265, 1-[6-(4-Fluoro-benzyl)-3,3-dimethyl-2,3-dihydro-pyrrolo[3,2-b]pyridin-1-yl]-2-((R)-3-methyl-piperazin-1-yl)-ethanone]
IC50 [1]: < 10 µM | IC50 [1, 6]: 0.041 µM

Structure (SMILES): C[C@@H]1CN(CC(=O)N2CCc3ccc(Nc4ccccc4)cc32)CCN1 [Example 3, 2-((R)-3-Methyl-piperazin-1-yl)-1-(6-phenylamino-2,3-dihydro-indol-1-yl)-ethanone Trifluoroacetate salt]
inhibition at 99 µM ([1]; 3 h, read-out: IC50 or PI cIAP1: PI): 48%

Structure (SMILES): C[C@@H]1CN(CC(=O)N2CCc3ccc(F)cc32)CCN1 [Example 10, 1-(6-Fluoro-2,3-dihydro-indol-1-yl)-2-((R)-3-methyl-piperazin-1-yl)-ethanone]
inhibition at 160 µM ([1]; 3 h, Probe A, @ 160 μM, read-out: IC50 or PI cIAP1: PI): 51%

Structure (SMILES): CC(C)c1ccc2c(c1)N(C(=O)CN1CCN[C@H](C)C1)CC2 [Example 13, 1-(6-Isopropyl-2,3-dihydro-indol-1-yl)-2-((R)-3-methyl-piperazin-1-yl)-ethanone]
IC50 [1, 4]: 63 µM

Structure (SMILES): C[C@@H]1CN(CC(=O)N2CCc3ccc(C(F)(F)F)cc32)CCN1 [Example 22, 2-((R)-3-Methyl-piperazin-1-yl)-1-(6-trifluoromethyl-2,3-dihydro-indol-1-yl)-ethanone]
IC50 [1, 4]: 36 µM

Structure (SMILES): C[C@@H]1CN(CC(=O)N2CC(C)(C)c3ncc(C(C)(F)F)cc32)[C@@H](CN2CCCC2=O)CN1 [Example 188, 1-{[(2R,5R)-1-{2-[6-(1,1-Difluoroethyl)-3,3-dimethyl-1H,2H,3H-pyrrolo[3,2-b]pyridin-1-yl]-2-oxoethyl}-5-methylpiperazin-2-yl]methyl}pyrrolidin-2-one dihydrochloride]
IC50 [1, 6]: 0.04 µM

Structure (SMILES): C[C@@H]1CN(CC(=O)N2CCc3ccc(Cl)cc32)CCN1 [Example 4, 1-(6-Chloro-2,3-dihydro-indol-1-yl)-2-((R)-3-methyl-piperazin-1-yl)-ethanone]
IC50 [1, 4]: 29 µM

Structure (SMILES): CC(C)[C@H]1CN[C@H](C)CN1CC(=O)N1CCc2ccc(Br)cc21 [Example 12, 1-(6-Bromo-2,3-dihydro-indol-1-yl)-2-((2S,5R)-2-isopropyl-5-methyl-piperazin-1-yl)-ethanone]
IC50 [1]: < 10 µM

Structure (SMILES): COC[C@H]1CN[C@H](C)CN1CC(=O)N1CC(C)(C)c2cnc(CC(C)C)cc21 [Example 72, 1-(6-Isobutyl-3,3-dimethyl-2,3-dihydro-pyrrolo[3,2-c]pyridin-1-yl)-2-((2R,5R)-2-methoxymethyl-5-methyl-piperazin-1-yl)-ethanone]
IC50 [1, 5]: 0.31 µM

The next lines start with the values.

inhibition at 100 µM [1, 3]: 36% | inhibition at 300 µM ([2]; 1 h, @ 300 μM, read-out: IC50 or PI Xiap: PI): 51%
Structure (SMILES): COC[C@H]1CN[C@H](C)CN1CC(=O)N1CC(C)(C)c2cnc(Nc3ccccc3)cc21 [Example 81, 1-(3,3-Dimethyl-6-phenylamino-2,3-dihydro-pyrrolo[3,2-c]pyridin-1-yl)-2-((2R,5R)-2-methoxymethyl-5-methyl-piperazin-1-yl)-ethanone hydrochloride salt]

IC50 [1, 5]: 0.35 µM | IC50 [2]: 1.2 µM
Structure (SMILES): COC[C@H]1CN[C@H](C)CN1CC(=O)N1CC(C)(COC)c2ccc(Br)cc21 (stereo partly drawn) [Example 127, 1-[6-Bromo-3-(methoxymethyl)-3-methyl-2,3-dihydro-1H-indol-1-yl]-2-[(2R,5R)-2-(methoxymethyl)-5-methylpiperazin-1-yl]ethan-1-one hydrochloride]

IC50 [1, 5]: 0.52 µM | IC50 [2]: 1.3 µM
Structure (SMILES): CCC1(C)CN(C(=O)CN2C[C@@H](C)NC[C@@H]2COC)c2cc(Cl)ccc21 (stereo partly drawn) [Example 123, 1-(6-Chloro-3-ethyl-3-methyl-2,3-dihydro-1H-indol-1-yl)-2-[(2R,5R)-2-(methoxymethyl)-5-methylpiperazin-1-yl]ethan-1-one hydrochloride]

IC50 [1, 5]: 7.9 µM | IC50 [2]: 5.5 µM
Structure (SMILES): C[C@@H]1CN(CC(=O)N2CC(C)(C)c3ccc(C#N)cc32)CCN1 [Example 162, 3,3-Dimethyl-1-{2-[(3R)-3-methylpiperazin-1-yl]acetyl}-2,3-dihydro-1H-indole-6-carbonitrile]

IC50 [1, 5]: 1.5 µM
Structure (SMILES): CC1(C)CN(C(=O)CN2CCNC(CF)C2)c2cc(Cc3ccccc3)ncc21 (stereo not shown) [Example 114, 1-{6-Benzyl-3,3-dimethyl-1H,2H,3H-pyrrolo[3,2-c]pyridin-1-yl}-2-[3-(fluoromethyl)piperazin-1-yl]ethan-1-one]

IC50 [1, 5]: 0.55 µM
Structure (SMILES): COC[C@H]1CN[C@H](C)CN1CC(=O)N1CC(C)(Cc2ccccc2)c2ccc(Cl)cc21 (stereo partly drawn) [Example 107, 1-(3-Benzyl-6-chloro-3-methyl-2,3-dihydro-1H-indol-1-yl)-2-[(2R,5R)-2-(methoxymethyl)-5-methylpiperazin-1-yl]ethan-1-one, hydrochloride salt]

IC50 [1, 5]: 1.9 µM
Structure (SMILES): CC1(C)CN(C(=O)CN2CCN[C@@H](CF)C2)c2cc(Cc3ccccc3)ncc21 [Example 116, 1-{6-Benzyl-3,3-dimethyl-1H,2H,3H-pyrrolo[3,2-c]pyridin-1-yl}-2-[(3R)-3-(fluoromethyl)piperazin-1-yl]ethan-1-one]

IC50 [1, 5]: 0.67 µM
Structure (SMILES): CC1(C)CN(C(=O)CN2CCN[C@H](CF)C2)c2cc(Cc3ccccc3)ncc21 [Example 115, 1-{6-Benzyl-3,3-dimethyl-1H,2H,3H-pyrrolo[3,2-c]pyridin-1-yl}-2-[(3S)-3-(fluoromethyl)piperazin-1-yl]ethan-1-one]

IC50 [1, 5]: 0.023 µM
Structure (SMILES): COC[C@H]1CN[C@H](C)CN1CC(=O)N1CC(C)(C)c2cnc(Cc3ccc(OC)cc3)cc21 [Example 98, 2-[(2R,5R)-2-(Methoxymethyl)-5-methylpiperazin-1-yl]-1-{6-[(4-methoxyphenyl)methyl]-3,3-dimethyl-1H,2H,3H-pyrrolo[3,2-c]pyridin-1-yl}ethan-1-one, hydrochloride salt]

inhibition at 100 µM [1, 3]: 6%
Structure (SMILES): CC1(C)CN(C(=O)CN2CCNC(C(F)(F)F)C2)c2cc(Cc3ccccc3)ncc21 (stereo not shown) [Example 113, 1-{6-Benzyl-3,3-dimethyl-1H,2H,3H-pyrrolo[3,2-c]pyridin-1-yl}-2-[3-(trifluoromethyl)piperazin-1-yl]ethan-1-one]
